Source: patent US20240116985A1, “STAPLED PEPTIDES AND METHODS THEREOF” (priority 2020, published 2024)

Tests used:
[1] = biological target: T1, full-length beta-Catenin (Uniprot ID P35222) (Homo sapiens, UniProt P35222); test: Fluorescence polarization IC50 (beta-catenin / 5FAM-TCF4 10-53 competition); type: binding; settings: fluorescence polarization; read-out: beta-Catenin FP IC50
T1 construct: 10 nM full-length beta-Catenin (Uniprot ID P35222)
T1 sequence (P35222 1-781): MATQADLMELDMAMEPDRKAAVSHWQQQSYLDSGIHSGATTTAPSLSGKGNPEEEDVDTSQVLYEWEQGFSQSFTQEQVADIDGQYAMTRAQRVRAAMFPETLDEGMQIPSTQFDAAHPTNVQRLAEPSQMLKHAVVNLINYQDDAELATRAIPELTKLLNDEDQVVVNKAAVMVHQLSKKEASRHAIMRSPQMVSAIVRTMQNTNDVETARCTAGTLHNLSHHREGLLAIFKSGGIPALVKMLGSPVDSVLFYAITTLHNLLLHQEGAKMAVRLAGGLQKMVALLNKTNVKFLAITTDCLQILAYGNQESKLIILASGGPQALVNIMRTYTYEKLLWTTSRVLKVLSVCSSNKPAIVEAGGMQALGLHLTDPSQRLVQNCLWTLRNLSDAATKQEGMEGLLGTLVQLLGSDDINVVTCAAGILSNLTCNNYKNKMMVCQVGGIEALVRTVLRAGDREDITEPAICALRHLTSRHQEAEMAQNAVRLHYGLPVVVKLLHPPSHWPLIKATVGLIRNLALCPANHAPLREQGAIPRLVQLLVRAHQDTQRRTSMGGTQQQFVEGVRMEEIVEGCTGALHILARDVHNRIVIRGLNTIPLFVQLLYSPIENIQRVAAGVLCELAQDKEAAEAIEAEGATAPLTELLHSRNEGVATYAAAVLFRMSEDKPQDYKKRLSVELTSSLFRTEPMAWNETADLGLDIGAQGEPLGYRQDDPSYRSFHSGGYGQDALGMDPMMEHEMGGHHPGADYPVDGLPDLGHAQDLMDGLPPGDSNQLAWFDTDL

[2] = biological target: T2, beta-catenin/TCF4 engagement (Homo sapiens, UniProt P35222); test: Nano-BRET target engagement assay (B-cat-Halo & TCF4-Luc in HEK293 cells); type: cell-based; settings: absolute IC50; read-out: NanoBRET Abs IC50
T2 construct: expressed in transfected cells; host or cells: HEK293
T2 sequence (P35222 1-781): T1 sequence (P35222 1-781)

SMILES: CC(=O)N1CCC[C@]12CC=CCCCC1(CCCC=CCCCOC(=O)N3CC[C@@](C(=O)N[C@@H](Cc4ccsc4)C(=O)N[C@@H](Cc4csc5ccccc45)C(=O)N[C@@H](CCC(N)=O)C(N)=O)(C3)NC(=O)[C@H](CC(C)(C)C)NC(=O)[C@H](Cc3ccccc3)NC(=O)[C@H](C)NC(=O)[C@H](C)NC(=O)[C@H](CN(CC(=O)O)CC(F)(F)F)NC(=O)[C@H](CC(=O)O)NC1=O)NC(=O)[C@H](CC(C)(C)C)NC(=O)[C@H](CC(=O)O)NC2=O (stereo partly drawn) [I-1773, Ac-PL3-Asp-Npg-B5-Asp-TfeGA-Ala-Ala-Phe-Npg-PyrS2-3Thi-BztA-Gln-NH2]
- IC50 [1]: 32 nM
- IC50 [2]: 8600 nM

SMILES: CC(=O)N1CCC[C@]12CC=CCCCC1(CCCC=CCCCOC(=O)N3CC[C@@](C(=O)N[C@@H](Cc4ccsc4)C(=O)N[C@@H](Cc4csc5ccccc45)C(=O)N[C@@H](CCC(N)=O)C(N)=O)(C3)NC(=O)[C@H](CC3CCCCC3)NC(=O)[C@H](Cc3ccccc3)NC(=O)[C@H](C)NC(=O)[C@H](C)NC(=O)[C@H](CN(CC(=O)O)CC(F)(F)F)NC(=O)[C@H](CC(=O)O)NC1=O)NC(=O)[C@H](CC(C)(C)C)NC(=O)[C@H](CC(=O)O)NC2=O (stereo partly drawn) [I-1774, Ac-PL3-Asp-Npg-B5-Asp-TfeGA-Ala-Ala-Phe-Cha-PyrS2-3Thi-BztA-Gln-NH2]
- IC50 [1]: 28 nM
- IC50 [2]: 8900 nM

SMILES: CCCC[C@@H]1NC(=O)[C@H](Cc2ccccc2)NC(=O)[C@H](C)NC(=O)[C@H](C)NC(=O)[C@H](CN(CC(=O)O)CC(F)(F)F)NC(=O)[C@H](CC(=O)O)NC(=O)C2(CCCC=CCCCOC(=O)N3CC[C@@](C(=O)N[C@@H](Cc4ccsc4)C(=O)N[C@@H](Cc4csc5ccccc45)C(=O)N[C@@H](CCC(N)=O)C(N)=O)(C3)NC1=O)CCCC=CC[C@]1(CCCN1C(C)=O)C(=O)N[C@@H](CC(=O)O)C(=O)N[C@@H](CC(C)(C)C)C(=O)N2 (stereo partly drawn) [I-1776, Ac-PL3-Asp-Npg-B5-Asp-TfeGA-Ala-Ala-Phe-nLeu-PyrS2-3Thi-BztA-Gln-NH2]
- IC50 [1]: 17 nM
- IC50 [2]: 10500 nM

SMILES: CCCC[C@@H]1NC(=O)[C@H](CC(=O)O)NC(=O)[C@]2(CC=CCCCC3(CCCC=CCCCOC(=O)N4CC[C@@](C(=O)N[C@@H](Cc5ccsc5)C(=O)N[C@@H](Cc5csc6ccccc56)C(=O)N[C@@H](CCC(N)=O)C(N)=O)(C4)NC(=O)[C@H](CC(C)C)NC(=O)[C@H](Cc4ccccc4)NC(=O)[C@H](C)NC(=O)[C@H](C)NC(=O)[C@H](CN(CC(=O)O)CC(F)(F)F)NC(=O)[C@H](CC(=O)O)NC3=O)NC1=O)CCCN2C(C)=O (stereo partly drawn) [I-1777, Ac-PL3-Asp-nLeu-B5-Asp-TfeGA-Ala-Ala-Phe-Leu-PyrS2-3Thi-BztA-Gln-NH2]
- IC50 [1]: 8 nM
- IC50 [2]: 8700 nM

SMILES: CC(=O)N1CCC[C@]12CC=CCCCC1(CCCC=CCCCOC(=O)N3CC[C@@](C(=O)N[C@@H](Cc4ccsc4)C(=O)N[C@@H](Cc4csc5ccccc45)C(=O)N[C@@H](CCC(N)=O)C(N)=O)(C3)NC(=O)[C@H](CCO)NC(=O)[C@H](Cc3ccccc3)NC(=O)[C@H](C)NC(=O)[C@H](C)NC(=O)[C@H](Cc3ccc(O)cc3)NC(=O)[C@H](CC(=O)O)NC1=O)NC(=O)[C@H](CC(C)(C)C)NC(=O)[C@H](CC(=O)O)NC2=O (stereo partly drawn) [I-1783, Ac-PL3-Asp-Npg-B5-Asp-Tyr-Ala-Ala-Phe-Hse-PyrS2-3Thi-BztA-Gln-NH2]
- IC50 [1]: 101 nM
- IC50 [2]: > 20000 nM

SMILES: CC(=O)N1CCC[C@]12CC=CCCCC1(CCCC=CCCCOC(=O)N3CC[C@@](C(=O)N[C@@H](Cc4ccsc4)C(=O)N[C@@H](Cc4csc5ccccc45)C(=O)N[C@@H](CCC(N)=O)C(N)=O)(C3)NC(=O)[C@H](CCO)NC(=O)[C@H](Cc3ccccc3)NC(=O)[C@H](C)NC(=O)[C@H](C)NC(=O)[C@H](CCc3ccc(O)cc3)NC(=O)[C@H](CC(=O)O)NC1=O)NC(=O)[C@H](CC(C)(C)C)NC(=O)[C@H](CC(=O)O)NC2=O (stereo partly drawn) [I-1786, Ac-PL3-Asp-Npg-B5-Asp-hTyr-Ala-Ala-Phe-Hse-PyrS2-3Thi-BztA-Gln-NH2]
- IC50 [1]: 42 nM
- IC50 [2]: > 20000 nM

SMILES: CC(=O)N1CCC[C@]12CC=CCCCC1(CCCC=CCCCOC(=O)N3CC[C@@](C(=O)N[C@@H](Cc4ccsc4)C(=O)N[C@@H](Cc4csc5ccccc45)C(=O)N[C@@H](CCC(N)=O)C(N)=O)(C3)NC(=O)[C@H](CC(N)=O)NC(=O)[C@H](Cc3ccccc3)NC(=O)[C@H](C)NC(=O)[C@H](C)NC(=O)[C@H](Cc3c[nH]c4ccccc34)NC(=O)[C@H](CC(=O)O)NC1=O)NC(=O)[C@H](CC(C)(C)C)NC(=O)[C@H](CC(=O)O)NC2=O (stereo partly drawn) [I-1788, Ac-PL3-Asp-Npg-B5-Asp-Trp-Ala-Ala-Phe-Asn-PyrS2-3Thi-BztA-Gln-NH2]
- IC50 [1]: 58 nM
- IC50 [2]: 33900 nM

SMILES: CC(=O)N1CCC[C@]12CC=CCCCC1(CCCC=CCCCOC(=O)N3CC[C@@](C(=O)N[C@@H](Cc4ccsc4)C(=O)N[C@@H](Cc4csc5ccccc45)C(=O)N[C@@H](CCC(N)=O)C(N)=O)(C3)NC(=O)[C@H](CC(N)=O)NC(=O)[C@H](Cc3ccccc3)NC(=O)[C@H](C)NC(=O)[C@H](C)NC(=O)[C@H](Cc3c(F)c(F)c(F)c(F)c3F)NC(=O)[C@H](CC(=O)O)NC1=O)NC(=O)[C@H](CC(C)(C)C)NC(=O)[C@H](CC(=O)O)NC2=O (stereo partly drawn) [I-1790, Ac-PL3-Asp-Npg-B5-Asp-Pff-Ala-Ala-Phe-Asn-PyrS2-3Thi-BztA-Gln-NH2]
- IC50 [1]: 82 nM
- IC50 [2]: 34400 nM

SMILES: CC(=O)N1CCC[C@]12CC=CCCCC1(CCCC=CCCCOC(=O)N3CC[C@@](C(=O)N[C@@H](Cc4ccsc4)C(=O)N[C@@H](Cc4csc5ccccc45)C(=O)N[C@@H](CCC(N)=O)C(N)=O)(C3)NC(=O)[C@H](CCO)NC(=O)[C@H](Cc3ccccc3)NC(=O)[C@H](C)NC(=O)[C@H](C)NC(=O)[C@H](Cc3c(F)c(F)c(F)c(F)c3F)NC(=O)[C@H](CC(=O)O)NC1=O)NC(=O)[C@H](CC(C)(C)C)NC(=O)[C@H](CC(=O)O)NC2=O (stereo partly drawn) [I-1791, Ac-PL3-Asp-Npg-B5-Asp-Pff-Ala-Ala-Phe-Hse-PyrS2-3Thi-BztA-Gln-NH2]
- IC50 [1]: 182 nM
- IC50 [2]: > 20000 nM

SMILES: CC(=O)N1CCC[C@]12CC=CCCCC1(CCCC=CCCCOC(=O)N3CC[C@@](C(=O)N[C@@H](Cc4ccsc4)C(=O)N[C@@H](Cc4csc5ccccc45)C(=O)N[C@@H](CCC(N)=O)C(N)=O)(C3)NC(=O)[C@H](CCO)NC(=O)[C@H](Cc3ccccc3)NC(=O)[C@H](C)NC(=O)[C@H](C)NC(=O)[C@H](Cc3c[nH]cn3)NC(=O)[C@H](CC(=O)O)NC1=O)NC(=O)[C@H](CC(C)(C)C)NC(=O)[C@H](CC(=O)O)NC2=O (stereo partly drawn) [I-1793, Ac-PL3-Asp-Npg-B5-Asp-His-Ala-Ala-Phe-Hse-PyrS2-3Thi-BztA-Gln-NH2]
- IC50 [1]: 20 nM
- IC50 [2]: > 20000 nM

SMILES: CC(=O)N1CCC[C@]12CC=CCCCC1(CCCC=CCCCOC(=O)N3CC[C@@](C(=O)N[C@@H](Cc4ccsc4)C(=O)N[C@@H](Cc4csc5ccccc45)C(=O)N[C@@H](CCC(N)=O)C(N)=O)(C3)NC(=O)[C@H](CCO)NC(=O)[C@H](Cc3ccccc3)NC(=O)[C@H](C)NC(=O)[C@H](C)NC(=O)[C@H](Cc3c[nH]cn3)NC(=O)[C@H](CC(=O)O)NC1=O)NC(=O)[C@H](CC(C)(C)C)NC(=O)[C@H](CC(=O)O)NC2=O (stereo partly drawn) [I-1794, Ac-PL3-Asp-Npg-B5-Asp-His-Ala-Ala-Phe-Hse-PyrS2-3Thi-BztA-Gln-NH2]
- IC50 [1]: 52 nM
- IC50 [2]: 37700 nM
